{"source": "patent US20180303101A1", "about": "“METHOD OF IMPROVING GRASS QUALITY” (priority 2004, published 2018)", "format_in_all_cases": "in vivo", "key": {"[1]": {"test_system": "Penncross creeping bentgrass", "experiment": "Tiller density at high temperature treatment (Example 1)", "description": "(§1) The following test methods were used to compare the effectiveness of a phthalocyanine composition according to the invention with known compositions. The following compositions were used in the experiments: Pigment Green 7 obtained from Sun Chemical Corporation as the water-dispersible product SUN T-64-1660 (containing 45 to 55 wt. % of Pigment Green 7) was used alone. A mixture of Pigment Green 7 and fosetyl-al was used as the commercially available product Chipco® Signature™ fungicide from Bayer Environmental Science, Montvale, N.J. The compound fosetyl-al was used as Chipco® Aliette® WDG fungicide available from Bayer Environmental Science, Montvale N.J.\n(§2) Seeds of “Penncross” creeping bentgrass were sown in polyvinyl chloride (PVC) tubes (10 cm in diameter and 20 cm in length) filled with coarse sand. Plants were kept in a growth chamber for 90 days before treatment stated to allow root and canopy establishment. The daily temperature in the growth chamber was 20/16° C., the photosynthetic photon flux density was 400 μmol m−2 s−1, and the photoperiod was 12 hours/day. Turf was mowed twice weekly at 4 mm with scissors, irrigated every other day until there was free drainage from the bottom of tubes, and fertilized weekly with 40 ml full-strength Hoagland's nutrient solution (Hoagland and Arnon, 1950). Insecticide was applied to kill whitefly when necessary. […]"}, "[2]": {"test_system": "Penncross creeping bentgrass", "experiment": "Root mortality at high temperature treatment (Example 1)", "details": "plants with or without pretreatment", "description": "as §1\n(§3) Seeds of “Penncross” creeping bentgrass were sown in polyvinyl chloride (PVC) tubes (10 cm in diameter and 20 cm in length) filled with coarse sand. Plants were kept in a growth chamber for 90 days before treatment stated to allow root and canopy establishment. The daily temperature in the growth chamber was 20/16° C., the photosynthetic photon flux density was 400 μmol m−2 s−1, and the photoperiod was 12 hours/day. […]\nRoot mortality was measured using the method of Knievel (1973) with modification.\nSamples of 0.5 g clean fresh roots were incubated with 10 mL 0.6% 2,3,5-triphenyltetrazolium chloride (in 0.05 M phosphate buffer, pH 7.4) for 24 hours in the dark at 30° C. […] Absorbance at 490 nm was used to determine root mortality."}, "[3]": {"test_system": "Penncross creeping bentgrass", "experiment": "Canopy net photosynthetic rate at high temperature treatment (Example 1)", "description": "as §1, §3\nCanopy net photosynthetic rate was measured as described below using a Li-6400 portable photosynthesis system (available from LiCor, Lincoln, NB)."}, "[4]": {"test_system": "creeping bentgrass (variety Penncross) turf", "experiment": "Bentgrass color rating after foliar spray (Example 2)", "details": "6 weeks after treatment; 6.8, 13.9 and 20.4 grams per 1000 sq. ft.; analysis of variance", "description": "(§4) Pigment Green 7 was suspended in water and applied as a foliar spray to creeping bentgrass (variety Penncross) turf with a pressurized sprayer at a spray volume of 1.37 gallons of water per 1000 sq. ft. (ca. 560 l/ha). Pigment Green 7 was applied at rates of 6.8, 13.9, and 20.4 grams per 1000 sq. ft. (0.73, 1.5, and 2.2 kg/ha, respectively). Each treatment was replicated 4 times. An untreated plot was included and was also replicated four times. The average color of the bentgrass was visually evaluated at 6 weeks after treatment. Color was evaluated on a qualitative scale from 1-9, with 9 being the highest quality and 1 the lowest quality."}, "[5]": {"test_system": "creeping bentgrass (variety Penncross) turf", "experiment": "Bentgrass color rating after foliar spray (Example 4)", "details": "6 weeks after treatment; iprodione 4 oz/1000 sq. ft.; Pigment Green 7 6.8 or 13.6 g/1000 sq. ft. in combination, 13.6 g alone", "description": "as §4\nThe procedure of Example 2 was repeated using iprodione fungicide (in the form of 26 GT brand iprodione fungicide) at 4 oz/1000 sq. ft. (ca. 1.3 mL/m2), iprodione at 4 oz/1000 sq. ft. (ca. 1.3 mL/m2) plus Pigment Green 7 at 6.8 g/1000 sq. ft. (0.73 kg/ha), iprodione at 4 oz/1000 sq. ft. plus Pigment Green 7 at 13.6 g/1000 sq. ft. (1.5 kg/ha), and Pigment Green 7 at 13.6 g/1000 sq. ft. (1.5 kg/ha). At 6 weeks after treatment, the color ratings were as follows."}, "[6]": {"test_system": "Penncross creeping bentgrass", "experiment": "Chlorophyll content at high temperature treatment (Example 1)", "description": "as §1\n(§5) Seeds of “Penncross” creeping bentgrass were sown in polyvinyl chloride (PVC) tubes (10 cm in diameter and 20 cm in length) filled with coarse sand. […]\n(§6) Chlorophyll and carotenoids were extracted by soaking 50 mg fresh shoots in 20 ml dimethyl sulfoxide (DMSO) in the dark for 72 hours. Absorbance of each extractant at 663 nm, 645 nm, and 470 nm was used to determine chlorophyll content using the formula of Arnon (1949) and carotenoids content using the formula of Lichtenthaler and Wellburn (1983) Canopy photochemical efficiency was estimated by measuring chlorophyll fluorescence (Fv/Fm) using plant photosynthesis efficiency analyzer (available from ADC Bioscientific Limited, Herts, England)."}, "[7]": {"test_system": "Penncross creeping bentgrass", "experiment": "Canopy photochemical efficiency (Fv/Fm) at high temperature treatment (Example 1)", "details": "plants with and without pretreatment", "description": "as §1, §5, §6"}, "[8]": {"test_system": "Penncross creeping bentgrass", "experiment": "Final root and canopy biomass at high temperature treatment (Example 1)", "details": "plants with and without pretreatment, end of experiment", "description": "as §1, §2"}, "[9]": {"test_system": "creeping bentgrass (variety Penncross) turf", "experiment": "Bentgrass color rating after foliar spray (Example 3)", "details": "6 weeks after treatment; Aliette 4 oz, Signature 4 and 8 oz, Pigment 6.8 and 13.6 g per 1000 sq. ft.; analysis of variance", "experimental": "Fosetyl-al (in the form of Aliette brand fungicide), fosetyl-al plus Pigment Green 7 (in the form of Signature brand Aliette fungicide), and Pigment Green 7 were separately suspended in water and applied as a foliar spray to creeping bentgrass (variety Penncross) turf with a pressurized sprayer at a spray volume of 1.37 gallons of water per 1000 sq. ft. (ca. 560 l/ha).\nTreatments were applied at the following rates: • Aliette 4 oz/1000 sq. ft. (ca. 1.3 mL/m2) • Signature 4 oz/1000 sq. ft. (ca. 1.3 mL/m2) • Signature 8 oz/1000 sq. ft. (ca. 2.5 mL/m2) • Pigment 6.8 g/1000 sq. ft. (0.73 kg/ha) • Pigment 13.6 g/1000 sq. ft. (1.5 kg/ha)"}}}
{"substance": "Pigment Green 7", "values": [{"measurement": "Tiller density, difference among applications", "setting": "[1]", "result": "no significant difference"}, {"measurement": "Root mortality", "setting": "[2]", "result": "lower root mortality than application of Signature fungicide and Aliette fungicide"}, {"measurement": "Net photosynthetic rate (Pn)", "setting": "[3]; plants with pretreatment", "result": "higher with application of Pigment Green 7 and Signature fungicide than with application of Aliette fungicide and water"}, {"measurement": "Net photosynthetic rate (Pn)", "setting": "[3]; plants without pretreatment", "result": "highest"}, {"measurement": "Color rating (visual, scale 1-9) versus untreated check", "setting": "[4]", "result": "significantly different than the untreated check"}, {"measurement": "Color rating versus untreated check", "setting": "[5]", "result": "significantly greener than the untreated"}, {"measurement": "Chlorophyll content (fresh weight basis)", "setting": "[6]; plants with pretreatment", "result": "highest"}, {"measurement": "Chlorophyll content (fresh weight basis)", "setting": "[6]; plants without pretreatment", "result": "higher with application of Signature fungicide and Pigment Green 7 than with application of Aliette fungicide"}, {"measurement": "Photochemical efficiency (Fv/Fm)", "setting": "[7]", "result": "highest"}, {"measurement": "Canopy biomass (dry weight)", "setting": "[8]", "result": "higher with application of Signature fungicide and Pigment Green 7 than with application of Aliette fungicide and water"}, {"measurement": "Roots biomass (dry weight)", "setting": "[8]", "result": "higher with application of Signature fungicide and Pigment Green 7 than with application of Aliette fungicide and water"}, {"measurement": "Color rating versus untreated check", "setting": "[9]", "result": "significantly different than the untreated check"}]}
